Key:
[1] = tested on: Sarcoma cells; assay: Chemotherapeutic effect on subcutaneously inoculated sarcoma cells in ICR mice (tumor weight, i.p. once a day for 5 days); format: in vivo, female ICR mice; settings: for Inhibition rate / Inhibition rate (%) (entry: toxic): once a day for 5 days; for Inhibition rate: tumor weight 5 days after the administration; for Inhibition rate (%) (entry: toxic): 100 mg/kg/day i.p., group of five female ICR mice; for ED30: denominator of MTD/ED30; for ED30 / MTD: doses of the table in mg/kg/day; for ED30 / MTD / Therapeutic index (MTD/ED30): i.p. once a day for 5 days; for MTD: numerator of MTD/ED30; for Therapeutic index (MTD/ED30): ratio MTD/ED30
Experimental: Chemotherapeutic effect of the organic platinum complex (I) of this invention was investigated as follows.
Sarcoma cells (1.5×10^6 cells) were inoculated subcutaneously at inguinal region of a group of five female mice (ICR mice, five week age). Twenty four hours after the inoculation, a solution of test compound was intraperitoneally administered to the mice once a day for 5 days. The weight of tumor in the mice was measured 5 days after the administration.

[2] = Renal function indices (creatinine and urea in blood) in mice; format: in vivo; settings: dose required to induce 100% increase in the life span
Source text: The organic platinum complex of the invention also has advantageous properties such as less toxicity to kidney, remarkedly higher water solubility and is easily transferred into organs in vivo in comparison with known organic platinum complexes.

SMILES | Inhibition rate ([1]; 6.25 mg/kg/day i.p.) [%] | Inhibition rate ([1]; 12.5 mg/kg/day i.p.) [%] | Inhibition rate ([1]; 25 mg/kg/day i.p.) [%] | Inhibition rate ([1]; 50 mg/kg/day i.p.) [%] | Inhibition rate (%) (entry: toxic) [1] | ED30 [1] | MTD [1] | Therapeutic index (MTD/ED30) [1] | Inhibition rate ([1]; 3.12 mg/kg/day i.p.) [%] | influence on indices of renal functions such as the concentration of creatinine and ueas in blood [2]
COCCOCC(=O)NC1C(=O)[O][Pt-2]2([NH2+]C3CCCCC3[NH2+]2)[O]C1=O (stereo not drawn) [Compound 2, [2-[[(methoxyethoxy)acetyl]amino]malonato] (trans-l-1,2-diaminocyclohexane)platinum (II)] | 17.8 | 57.6 | 65.4 | 80.2 | Toxic (4/5) | 6.7 | 50 | 7.5 | – | –
CC(=O)NC1(C)C(=O)[O][Pt-2]2([NH2+]C3CCCCC3[NH2+]2)[O]C1=O (stereo not drawn) [Compound 3, [2-(acetylamino)-2-methylmalonato] (trans-l-1,2-diaminocyclohexane) platinum (II)] | 26.4 | 49.7 | 63.5 | 80.7 | Toxic (5/5) | 7.0 | 50 | 7.1 | – | –
CC(=O)NC1C(=O)[O][Pt]2([NH]C3CCCCC3[NH]2)[O]C1=O (stereo not drawn) [Compound 1, [2-(acetylamino)malonato](trans-l-1,2-diaminocyclohexane)platinum (II)] | 36.0 | 52.3 | 64.8 | 89.4 | Toxic (5/5) | 3.6 | 50 | – | 28.4 | no influences

— patent US4882447A, “Novel organic platinum complex and process for the preparation thereof” (priority 1987, dated 1989)
